What was measured:
[1] = system: wild-type E. coli CGSC#7636 (BW25113); assay: MIC, wild-type E. coli; format: cell-based; conditions: Escherichia coli, BW25113, Table S11; read-out: MIC WT
Outline: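 Single colonies grown in M9; compounds diluted two-fold in DMSO and added to 3–7 × 10^5 CFU/ml cultures, final 40 to 0.3 µg/mL. Wells at and above MIC diluted 1:10 and plated on LB agar for MBC.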

[2] = system: E. coli clinical isolates; assay: MIC on panel of E. coli clinical isolates; format: cell-based
E. coli BW24113 = assay: In vitro time kill analysis; format: cell-based
Description: (§1) The inoculum used for all the experiments is derived from a single seed lot that is maintained as glycerol stocks at −80 °C and are sub cultured on LB plate for isolated colonies. Single colony of each strain is grown in M9 medium. All test compound stocks and dilutions are prepared in DMSO. Serial two-fold dilutions of compounds are prepared separately, with the concentrations ranging from 2 mg/mL to 0.015 mg/mL. To 150 µl (3–7 × 10^5 CFU/ml) of bacterial culture in 96 well microtitre plates, 3 μL compound from each of the dilutions is added to respective wells to obtain final concentrations ranging from 40 µg/mL to 0.3 µg/mL of the test compounds. Media control, culture control and appropriate reference drug controls are included. […] Growth is monitored by checking absorbance at 600 nm (A600). […] The samples from MIC and above concentrations are plated for MBC (Minimum Bactericidal Concentration). The samples are diluted 1:10 and plated on LB agar plates. […] The killing kinetics is determined by enumerating survivors at various time points following compound exposure. E. coli cells (~10^7 CFU/ml; A600 of 0.1) are treated with various concentrations (40 µg/mL to 0.3 µg/mL) of compounds in a 96-well microtitre plate. At various time intervals (0 to 8 h), 30 μl volumes of treated cultures are serially diluted and plated on LB agar plates. […] Data is expressed as the log10 CFU for each drug treatment.

NfsB = target: T1, NfsB (Escherichia coli, UniProt P38489); assay: Nitroreductase activity assay, NfsB; format: biochemical, E. coli; conditions: 20 μM compound, 40 μM NADH, 70 nM NfsB; slope of initial velocity
T1 construct: His-tag; made in house; host or cells: E. coli BL21(DE3), pET28a (pET-nfsB)
Description: Enzyme reducing each of the substrates are measured by monitoring the concomitant oxidation of NADPH by NfsA and NADH by NfsB in a fluorescence based assay. The reduction in fluorescence due to the NADH oxidation (excitation 350 nm, emission 460 nm) and NADPH oxidation (excitation 340 nm, emission 485 nm) is recorded using a TECAN Infinite M200Pro spectrophotometer, in half area solid black microtiter plates. This change in fluorescence directly corelates to the reduction of the nitro-compounds in the reaction. The NfsA assays is performed by initiating the reactions with 40 μM NADPH and 10 nM NfsA in 50 mM Tris-HCl (pH 7.4), 5 mM EDTA against 20 μM substrate (5 μl of compounds/substrate dissolved in 100% DMSO) in a total reaction volume of 100 μl at 25 °C. Similarly, the NfsB assay is also performed by initiating the reactions with 40 μM NADH and 70 nM NfsB in 50 mM Tris-HCl (pH 7.4), 5 mM EDTA against 20 μM substrate in a total reaction volume of 100 μl. […] All reactions are performed in replicates of two or more and the fluorescence measurements are made at 10 second intervals for 5–10 minutes.
Low solubility of the compounds/substrates under the NfsA and NfsB assay conditions precluded determination of their Km. […] The relative fluorescence units (RFU) obtained due to NADPH (excitation 340 nm, emission 485 nm) or NADH (excitation 350 nm, emission 460 nm) oxidation of the first 90 sec reaction is used to compute the slopes using linear regression analysis on GraphPad Prism. Appropriate blank reactions are included to account for background fluorescence/quenching from each of the components such as DMSO, the compound itself and auto-oxidation of NADPH or NADH. Activity of NfsB with a known substrate such as nitrofurantoin is used as a benchmark to plot the relative activities with all the test compounds.

[3] = system: Salmonella typhimurium clinical strain; assay: MIC, Salmonella typhimurium; format: cell-based
Description: as §1, with “plate.” for “plate. At various time intervals (0 to 8 h), 30 μl volumes of treated cultures are serially diluted and plated on LB agar plates.”

T1 sequence (P38489 whole entry): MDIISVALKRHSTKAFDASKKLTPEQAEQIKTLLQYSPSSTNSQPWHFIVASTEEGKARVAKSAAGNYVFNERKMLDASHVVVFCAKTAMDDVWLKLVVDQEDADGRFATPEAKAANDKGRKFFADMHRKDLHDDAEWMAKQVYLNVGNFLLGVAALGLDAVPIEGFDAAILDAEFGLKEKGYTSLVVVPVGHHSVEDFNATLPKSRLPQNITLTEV

COc1cc(-c2csc(NC(=O)c3ccc([N+](=O)[O-])s3)n2)ccc1Cl [compound 20, N-(4-(4-chloro-3-methoxyphenyl)thiazol-2-yl)-5-nitrothiophene-2-carboxamide]
4 µg/mL: MIC ([2]; strain SEC022) | MIC ([2]; strain SEC025) | MIC ([2]; strain SEC061) | MIC ([2]; strain SEC072) | MIC ([2]; strain SEC075) | MIC ([2]; strain SEC076) | MIC ([2]; strain SEC078) | MIC ([2]; strain SEC080)
1.25 µg/mL: MIC [1]
5 µg/mL: MIC50 ([2]; Escherichia coli, 75 E.coli clinical isolates, 50% clinical isolates)
0.6 to 10 µg/mL: MIC Range ([2]; 75 E.coli clinical isolates)
8 µg/mL: MIC ([2]; strain SEC001) | MIC ([2]; strain SEC002) | MIC ([2]; strain SEC003) | MIC ([2]; strain SEC004) | MIC ([2]; strain SEC005) | MIC ([2]; strain SEC006) | MIC ([2]; strain SEC007) | MIC ([2]; strain SEC008) | MIC ([2]; strain SEC011) | MIC ([2]; strain SEC013) | MIC ([2]; strain SEC014) | MIC ([2]; strain SEC015) | MIC ([2]; strain SEC020) | MIC ([2]; strain SEC023) | MIC ([2]; strain SEC024) | MIC ([2]; strain SEC026) | MIC ([2]; strain SEC032) | MIC ([2]; strain SEC034) | MIC ([2]; strain SEC035) | MIC ([2]; strain SEC036) | MIC ([2]; strain SEC039) | MIC ([2]; strain SEC041) | MIC ([2]; strain SEC042) | MIC ([2]; strain SEC043) | MIC ([2]; strain SEC044) | MIC ([2]; strain SEC046) | MIC ([2]; strain SEC048) | MIC ([2]; strain SEC049) | MIC ([2]; strain SEC050) | MIC ([2]; strain SEC051) | MIC ([2]; strain SEC057) | MIC ([2]; strain SEC058) | MIC ([2]; strain SEC060) | MIC ([2]; strain SEC064) | MIC ([2]; strain SEC068) | MIC ([2]; strain SEC069) | MIC ([2]; strain SEC070) | MIC ([2]; strain SEC073) | MIC ([2]; strain SEC074)
0.25 µg/mL: MIC ([2]; strain SEC038) | MIC ([2]; strain SEC047)
6 to 8 h: time to 99.9% reduction (E. coli BW24113; at 2–4X MIC)
8 h: time to total kill (below the limit of quantitation, LOQ) (E. coli BW24113; at 8X MIC)
3.50 µM/min: NfsB activity (rate of compound conversion) (NfsB)
2 µg/mL: MIC ([2]; strain SEC012) | MIC ([2]; strain SEC016) | MIC ([2]; strain SEC019) | MIC ([2]; strain SEC029) | MIC ([2]; strain SEC033) | MIC ([2]; strain SEC040) | MIC ([2]; strain SEC045) | MIC ([2]; strain SEC053) | MIC ([2]; strain SEC054) | MIC ([2]; strain SEC055) | MIC ([2]; strain SEC059) | MIC ([2]; strain SEC063) | MIC ([2]; strain SEC065) | MIC ([2]; strain SEC067) | MIC ([2]; strain SEC077) | MIC ([2]; strain SEC079)
0.06 µg/mL: MIC ([2]; strain SEC017)
10 µg/mL: MIC90 ([2]; Escherichia coli, 75 E.coli clinical isolates, 90% clinical isolates) | MIC Salmonella typhimurium [3]
1 µg/mL: MIC ([2]; strain SEC018) | MIC ([2]; strain SEC021) | MIC ([2]; strain SEC028) | MIC ([2]; strain SEC031) | MIC ([2]; strain SEC037) | MIC ([2]; strain SEC052) | MIC ([2]; strain SEC062) | MIC ([2]; strain SEC071)

Source: publication PMC5940854, “Nitrothiophene carboxamides, a novel narrow spectrum antibacterial series: Mechanism of action and Efficacy” (Scientific Reports, 2018)
